According to ChEMBL document CHEMBL1154381, “Mining biologically-active molecules for inhibitors of fatty acid amide hydrolase (FAAH): identification of phenmedipham and amperozide as FAAH inhibitors” (Bioorg Med Chem Lett, 2009):

Tests used:
[1] = molecular target: T1, Fatty-acid amide hydrolase 1 (Homo sapiens, UniProt O00519); assay: Inhibition of human FAAH
T1 sequence (O00519 whole entry): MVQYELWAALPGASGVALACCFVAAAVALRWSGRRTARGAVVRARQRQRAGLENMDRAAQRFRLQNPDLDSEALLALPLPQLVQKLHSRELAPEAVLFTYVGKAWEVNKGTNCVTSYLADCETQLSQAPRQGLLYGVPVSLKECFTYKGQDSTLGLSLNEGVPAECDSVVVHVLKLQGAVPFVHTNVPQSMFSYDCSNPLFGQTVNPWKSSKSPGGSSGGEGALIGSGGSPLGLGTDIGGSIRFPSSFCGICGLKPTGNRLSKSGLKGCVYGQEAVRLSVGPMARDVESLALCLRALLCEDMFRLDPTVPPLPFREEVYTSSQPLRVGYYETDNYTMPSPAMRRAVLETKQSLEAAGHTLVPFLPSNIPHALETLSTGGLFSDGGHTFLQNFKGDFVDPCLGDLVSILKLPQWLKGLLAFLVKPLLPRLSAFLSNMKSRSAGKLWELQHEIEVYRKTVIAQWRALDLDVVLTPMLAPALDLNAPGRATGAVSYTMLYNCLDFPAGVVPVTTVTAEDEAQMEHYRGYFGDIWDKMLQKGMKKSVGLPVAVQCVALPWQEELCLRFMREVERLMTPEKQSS

[2] = molecular target: T2, Fatty-acid amide hydrolase 1 (Rattus norvegicus) (UniProt P97612); assay: Inhibition of rat FAAH at 10 uM
T2 sequence (whole entry): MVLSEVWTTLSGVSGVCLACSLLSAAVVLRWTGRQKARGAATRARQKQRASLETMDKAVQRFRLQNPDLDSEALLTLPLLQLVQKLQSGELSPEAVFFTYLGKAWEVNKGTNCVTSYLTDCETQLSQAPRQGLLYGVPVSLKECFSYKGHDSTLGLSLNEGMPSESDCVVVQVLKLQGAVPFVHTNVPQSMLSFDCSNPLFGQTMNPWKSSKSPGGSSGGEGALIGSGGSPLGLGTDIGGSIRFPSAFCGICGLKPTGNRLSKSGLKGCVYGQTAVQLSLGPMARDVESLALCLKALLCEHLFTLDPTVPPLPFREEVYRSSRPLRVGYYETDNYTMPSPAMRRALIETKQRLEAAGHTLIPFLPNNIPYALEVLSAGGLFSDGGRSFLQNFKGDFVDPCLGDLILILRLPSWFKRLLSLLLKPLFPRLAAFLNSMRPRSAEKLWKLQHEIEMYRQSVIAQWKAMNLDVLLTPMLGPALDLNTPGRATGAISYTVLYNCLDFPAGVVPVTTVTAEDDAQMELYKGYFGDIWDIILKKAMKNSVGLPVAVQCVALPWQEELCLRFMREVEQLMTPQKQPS

[3] = molecular target: T1, Fatty-acid amide hydrolase 1; assay: Inhibition of human FAAH-mediated hydrolysis of [3H]AEA
[4] = molecular target: T3, Fatty-acid amide hydrolase 1 (Rattus norvegicus, UniProt P97612); assay: Inhibition of rat FAAH
T3 sequence (P97612 whole entry): T2 sequence (whole entry)

[5] = Toxicity in rat; type: organism-based; conditions: in vivo

CCNC(=O)N1CCN(CCCC(c2ccc(F)cc2)c2ccc(F)cc2)CC1 [AMPEROZIDE]
IC50 [1]: 1340 nM
inhibition [2]: 50%
IC50 [3]: 455 nM

COC(=O)Nc1cccc(OC(=O)Nc2cccc(C)c2)c1
IC50 [1]: 377 nM
IC50 [4]: 77 nM
IC50 [3]: 152 nM
LD50 [5]: > 8000 mg/kg
